Experimental data: US20150258059A1, “ANTIMICROBIAL AND RADIOPROTECTIVE COMPOUNDS” (BioDiem, Ltd, priority 2001, published 2015)
Like-named read-outs stand apart in the source and are kept apart here.

Experiments:
Format in all cases: cell-based
[1] = test system: Conditional pathogenic enterobacteria gram-negative aerobic bacilli; further: key: + sensitive strains; + moderately sensitive strains; − stable strains
[2] = test system: Pseudomonas aeruginosa B-601; experiment: Sensitivity of strains: suppression of growth; conditions: Compound (1) 1.0%; antibiotics disc method
Escherichia coli M-17 = experiment: Sensitivity of strains: suppression of growth; conditions: Compound (1) 1.0%; antibiotics disc method
Escherichia coli B-683 = experiment: Sensitivity of strains: suppression of growth; conditions: Compound (1) 1.0%; antibiotics disc method
Escherichia coli B-65 = experiment: Sensitivity of strains: suppression of growth; conditions: Compound (1) 1.0%; antibiotics disc method
[3] = test system: Enterobacter aerogenes B-679; experiment: Sensitivity of strains: suppression of growth; conditions: Compound (1) 1.0%; antibiotics disc method
[4] = test system: Enterobacter aerogenes B-687; experiment: Sensitivity of strains: suppression of growth; conditions: Compound (1) 1.0%; antibiotics disc method
[5] = test system: Citrobacter diversus B-678; experiment: Sensitivity of strains: suppression of growth; conditions: Compound (1) 1.0%; antibiotics disc method
[6] = test system: Shigella flexneri M-2A6907; experiment: Sensitivity of strains: suppression of growth; conditions: Compound (1) 1.0%; antibiotics disc method
Shigella sonnei B-720 = experiment: Sensitivity of strains: suppression of growth; conditions: Compound (1) 1.0%; antibiotics disc method
[7] = test system: Salmonella typhimurium M-727; experiment: Sensitivity of strains: suppression of growth; conditions: Compound (1) 1.0%; antibiotics disc method
[8] = test system: Salmonella paratyphi M-16469; experiment: Sensitivity of strains: suppression of growth; conditions: Compound (1) 1.0%; antibiotics disc method
Acinetobacter B-681 = experiment: Sensitivity of strains: suppression of growth; conditions: Compound (1) 1.0%; antibiotics disc method
Acinetobacter B-676 = experiment: Sensitivity of strains: suppression of growth; conditions: Compound (1) 1.0%; antibiotics disc method
Acinetobacter B-677 = experiment: Sensitivity of strains: suppression of growth; conditions: Compound (1) 1.0%; antibiotics disc method
Alkaligenes sp. B-689 = experiment: Sensitivity of strains: suppression of growth; conditions: Compound (1) 1.0%; antibiotics disc method
Alkaligenes sp. B-667 = experiment: Sensitivity of strains: suppression of growth; conditions: Compound (1) 1.0%; antibiotics disc method
[9] = test system: Yersinia pseudotuberculosis; conditions: Compound (1) 1.0%; antibiotics disc method
[10] = test system: Klebsiella pneumoniae M-A21; experiment: Sensitivity of strains: suppression of growth; conditions: Compound (1) 1.0%; antibiotics disc method
[11] = test system: Klebsiella pneumoniae M-248; experiment: Sensitivity of strains: suppression of growth; conditions: Compound (1) 1.0%; antibiotics disc method
[12] = test system: Corynebacterium diphtheriae B-670; experiment: Sensitivity of strains: suppression of growth; conditions: Compound (1) 1.0%; antibiotics disc method
Bacillus sp. B-575 = experiment: Sensitivity of strains: suppression of growth; further: key: + sensitive strains; + moderately sensitive strains; − stable strains
[13] = test system: Neisseria meningitidis M-6231; experiment: Sensitivity of strains: suppression of growth; conditions: Compound (1) 1.0%; antibiotics disc method
[14] = test system: Neisseria meningitidis M-A72; experiment: Sensitivity of strains: suppression of growth; conditions: Compound (1) 1.0%; antibiotics disc method
[15] = test system: Staphylococcus aureus M-12159; experiment: Sensitivity of strains: suppression of growth; conditions: Compound (1) 1.0%; antibiotics disc method
[16] = test system: Staphylococcus aureus M-209; experiment: Sensitivity of strains: suppression of growth; conditions: Compound (1) 1.0%; antibiotics disc method
[17] = test system: Staphylococcus aureus B-685; experiment: Sensitivity of strains: suppression of growth; conditions: Compound (1) 1.0%; antibiotics disc method
[18] = test system: Staphylococcus aureus B-674; experiment: Sensitivity of strains: suppression of growth; conditions: Compound (1) 1.0%; antibiotics disc method
[19] = test system: Staphylococci epidermidis D-513; experiment: Sensitivity of strains: suppression of growth; conditions: Compound (1) 1.0%; antibiotics disc method
[20] = test system: Staphylococcus epidermidis BK-30; experiment: Sensitivity of strains: suppression of growth; conditions: Compound (1) 1.0%; antibiotics disc method
[21] = test system: γ-hemolytic streptococcus B-672; experiment: Sensitivity of strains: suppression of growth; conditions: Compound (1) 1.0%; antibiotics disc method
[22] = test system: β-hemolytic streptococcus B-624; experiment: Sensitivity of strains: suppression of growth; conditions: Compound (1) 1.0%; antibiotics disc method
[23] = test system: Staphylococcus aureus ATCC 29213; experiment: NCCLS broth microdilution MIC/MBC
Proteus vulgaris RMIT = experiment: NCCLS broth microdilution MIC/MBC
[24] = test system: Escherichia coli ATCC 25922; experiment: NCCLS broth microdilution MIC/MBC
[25] = test system: Pseudomonas aeruginosa ATCC 27853; experiment: NCCLS broth microdilution MIC/MBC
Serratia marcescens RMIT = experiment: NCCLS broth microdilution MIC/MBC

| Compound | Suppression of Growth (+/−) [2] | Suppression of Growth (+/−) (Escherichia coli M-17) | Suppression of Growth (+/−) (Escherichia coli B-683) | Suppression of Growth (+/−) (Escherichia coli B-65) | Suppression of Growth (+/−) [3] | Suppression of Growth (+/−) [4] | Suppression of Growth (+/−) [5] | Suppression of Growth (+/−) [6] | Suppression of Growth (+/−) (Shigella sonnei B-720) | Suppression of Growth (+/−) [7] | Suppression of Growth (+/−) [8] | Suppression of Growth (+/−) (Acinetobacter B-681) | Suppression of Growth (+/−) (Acinetobacter B-676) | Suppression of Growth (+/−) (Acinetobacter B-677) | Suppression of Growth (+/−) (Alkaligenes sp. B-689) | Suppression of Growth (+/−) (Alkaligenes sp. B-667) | Suppression of Growth (+/−) [9] | Suppression of Growth (+/−) [10] | Suppression of Growth (+/−) [11] | Suppression of Growth (+/−) [12] | other results |
| --- | --- | --- | --- | --- | --- | --- | --- | --- | --- | --- | --- | --- | --- | --- | --- | --- | --- | --- | --- | --- | --- |
| CCC[C@@H]1C[C@@H](C(=O)N[C@@H]([C@H]2O[C@H](SC)[C@H](O)[C@@H](O)[C@H]2O)[C@@H](C)O)N(C)C1 [Antibiotic 6, lincomycin] | − | − | − | + | − | − | − | − | − | − | − | − | − | − | − | − | − | − | − | − | Suppression of Growth (+/−) [1]: −; Suppression of Growth (+/−) (Bacillus sp. B-575; Compound (1) 1.0%, antibiotics disc method): +; Suppression of Growth (+/−) [13]: −; Suppression of Growth (+/−) [14]: −; Suppression of Growth (+/−) [15]: −; Suppression of Growth (+/−) [16]: −; Suppression of Growth (+/−) [17]: −; Suppression of Growth (+/−) [18]: −; Suppression of Growth (+/−) [19]: +; Suppression of Growth (+/−) [20]: −; Suppression of Growth (+/−) [21]: −; Suppression of Growth (+/−) [22]: − |
| Cc1onc(-c2ccccc2)c1C(=O)N[C@@H]1C(=O)N2[C@@H]1SC(C)(C)[C@@H]2C(=O)O [Antibiotic 8, oxacillin] | − | − | − | − | − | − | − | − | − | − | − | − | − | − | − | − | − | − | − | − | Suppression of Growth (+/−) (Bacillus sp. B-575): −; Suppression of Growth (+/−) [13]: −; Suppression of Growth (+/−) [14]: −; Suppression of Growth (+/−) [15]: +; Suppression of Growth (+/−) [16]: −; Suppression of Growth (+/−) [17]: +; Suppression of Growth (+/−) [18]: −; Suppression of Growth (+/−) [19]: +; Suppression of Growth (+/−) [20]: +; Suppression of Growth (+/−) [21]: −; Suppression of Growth (+/−) [22]: − |
| CC[C@H]1OC(=O)[C@H](C)[C@@H](O[C@H]2C[C@@](C)(OC)[C@@H](O)[C@H](C)O2)[C@H](C)[C@@H](O[C@@H]2O[C@H](C)C[C@H](N(C)C)[C@H]2O)[C@](C)(O)C[C@@H](C)C(=O)[C@H](C)[C@@H](O)[C@]1(C)O [Antibiotic 14, erythromycin] | + | + | + | + | − | − | − | − | − | − | − | − | − | − | − | − | − | − | − | + | Suppression of Growth (+/−) [1]: −; Suppression of Growth (+/−) [13]: −; Suppression of Growth (+/−) [14]: −; Suppression of Growth (+/−) [15]: −; Suppression of Growth (+/−) [16]: −; Suppression of Growth (+/−) [17]: −; Suppression of Growth (+/−) [18]: +; Suppression of Growth (+/−) [19]: −; Suppression of Growth (+/−) [20]: −; Suppression of Growth (+/−) [21]: −; Suppression of Growth (+/−) [22]: − |
| CCCCCCCCCCCCCCCC[N+](C)(C)C.[Br-] [CTAB, cetyl trimethyl ammonium bromide] |  |  |  |  |  |  |  |  |  |  |  |  |  |  |  |  |  |  |  |  | MIC ([23]; Staphylococcus aureus, ATCC29213): 16 µg/mL; MMC ([23]; Table 17, 2 or 3 replicates): 32 µg/mL; MIC (Proteus vulgaris RMIT; Proteus vulgaris): 128 µg/mL; MMC (Proteus vulgaris RMIT; Table 17, 2 or 3 replicates): 256 µg/mL; MIC ([24]; Escherichia coli, ATCC25922): 16 µg/mL; MMC ([24]; Table 17, 2 or 3 replicates): 16 µg/mL; MIC ([25]; Pseudomonas aeruginosa, ATCC27853): 512 µg/mL; MMC ([25]; Table 17, 2 or 3 replicates): >512 µg/mL; MIC (Serratia marcescens RMIT; Serratia marcescens): 128 µg/mL; MMC (Serratia marcescens RMIT; Table 17, 2 or 3 replicates): 128 µg/mL |
